Experimental data reported in US20230322805A1, “NOVEL PYRIMIDODIAZEPINE DERIVATIVES OR USES THEREOF” (SPARK BIOPHARMA, INC., priority 2020, published 2023).

Columns and labels:
PDIA3 = biological target: T1, PDIA3 (Homo sapiens, UniProt P30101); assay: Surface plasmon resonance assay; assay type: binding; conditions: various concentrations, PBS pH 7.3, 25° C.
T1 sequence (P30101 25-505): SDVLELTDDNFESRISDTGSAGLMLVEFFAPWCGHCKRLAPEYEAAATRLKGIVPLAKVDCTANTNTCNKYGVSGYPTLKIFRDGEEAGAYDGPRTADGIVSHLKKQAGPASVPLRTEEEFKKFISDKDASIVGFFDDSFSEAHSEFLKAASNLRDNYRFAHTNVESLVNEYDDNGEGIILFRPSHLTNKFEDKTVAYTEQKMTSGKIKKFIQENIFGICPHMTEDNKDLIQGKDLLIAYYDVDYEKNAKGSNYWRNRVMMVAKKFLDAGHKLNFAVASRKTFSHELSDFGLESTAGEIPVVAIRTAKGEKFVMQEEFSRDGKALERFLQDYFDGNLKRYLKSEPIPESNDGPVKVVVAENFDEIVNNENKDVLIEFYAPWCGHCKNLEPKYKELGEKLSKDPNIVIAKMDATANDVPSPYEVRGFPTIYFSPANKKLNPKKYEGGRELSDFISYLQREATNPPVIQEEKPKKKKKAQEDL
Procedure: (§1) Surface plasmon resonance (SPR) assays were performed using a Biacore T100 instrument (GE Healthcare). The recombinant PDIA3 or DNAJC3 protein was immobilized on the CM5 sensor chip (GE Healthcare) through an amide bond by activating the carboxy group on the CM5 sensor chip with a 1:1 mixture of N-ethyl-N′-(3-dimethylaminopropyl)-carbodiimide and N-hydroxysuccinimide. Protein immobilization reactions were performed in PBS containing 0.005% Tween 20 at pH 4.7 and pH 5.0 for PDIA3 and DNAJC3, respectively. Binding between compounds and proteins was monitored by injecting compounds at various concentrations into PBS (pH 7.3) containing 3% DMSO and 0.005% Tween 20 at 25° C. Data were analyzed to calculate kinetic parameters by fitting sensor grams with a 1:1 binding model using Biacore T100 evaluation software (GE Healthcare).
(§2) Additionally, it was confirmed whether SB1617 directly binds to PDIA3 and DNAJC3 through surface plasmon resonance (SPR) of Examples 1-11.

DNAJC3 = biological target: T2, DNAJC3 (Homo sapiens, UniProt Q13217); assay: Surface plasmon resonance assay; assay type: binding; conditions: various concentrations, PBS pH 7.3, 25° C.
T2 sequence (Q13217 32-504): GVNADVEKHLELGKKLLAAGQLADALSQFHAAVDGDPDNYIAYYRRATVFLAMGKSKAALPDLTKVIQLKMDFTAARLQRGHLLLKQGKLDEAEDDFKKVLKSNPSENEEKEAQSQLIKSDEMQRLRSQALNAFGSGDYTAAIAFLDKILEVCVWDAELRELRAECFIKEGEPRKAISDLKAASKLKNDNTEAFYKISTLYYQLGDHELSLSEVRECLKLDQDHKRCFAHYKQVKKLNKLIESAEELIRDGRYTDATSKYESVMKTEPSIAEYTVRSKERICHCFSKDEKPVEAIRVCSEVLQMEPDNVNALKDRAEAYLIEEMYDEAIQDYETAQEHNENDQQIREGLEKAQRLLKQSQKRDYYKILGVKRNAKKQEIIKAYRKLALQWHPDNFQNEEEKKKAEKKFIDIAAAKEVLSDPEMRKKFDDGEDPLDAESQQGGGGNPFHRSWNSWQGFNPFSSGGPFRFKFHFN
Procedure: as §1, §2

[1] = biological target: T3, PDIA3 (PDI reductase activity) (Homo sapiens, UniProt P30101); assay: PEG maleimide modification assay of PDI oxidation state; assay type: cell-based; conditions: BiFC-tau HEK293 cells, 200 nM TG and 40 μM SB1617 for 3.5 hours, versus thapsigargin alone
T3 construct: endogenous in cells; host or cells: HEK293 BiFC-tau cells (TS-FITGE, CETSA, PEG-maleimide assay)
T3 sequence (P30101 25-505): T1 sequence (P30101 25-505)
Procedure: Cysteine modification analysis using PEG maleimide was performed according to the paper (P. Kranz, F. Neumann, A. Wolf, F. Classen, M. Pompsch, T. Ocklenburg, J. Baumann, K. Janke, M. Baumann, K. Goepelt, H. Riffkin, E. Metzen, U. Brockmeier, PDI is an essential redox-sensitive activator of PERK during the unfolded protein response (UPR). Cell Death Dis. 8, e2986 (2017)).
After compound treatment, BiFC-tau HEK293 cells were washed with cold PBS, incubated with 20 mM N-ethylmaleimide (NEM, Sigma Aldrich) in PBS for 20 minutes on ice to alkylate the reduced form of cysteine, and after washing with cold PBS, the cells were lysed in RIPA buffer. For whole cell analysis, the lysate was centrifuged at 200 g for 5 min at 4° C. to remove insoluble material. Protein concentration in the supernatant was analyzed by Pierce BCA Protein Assay Kit. Equal amounts of each lysate were treated with 12 mM tris(2-carboxyethyl)phosphine (TCEP, Sigma Aldrich) for 20 minutes at room temperature to reduce the form of oxidized PDI. Lysates were incubated with 15 mM methoxy polyethylene glycol 5000 maleimide (mPEG-mal5000, Sigma Aldrich) for 1 hour at room temperature. […]
3-2. […] Maleimides with two different molecular weights allow the bands of oxidized and reduced forms of PDI to be readily separated by electrophoresis.

[2] = system: autophagy-related genes regulated by ATF4 in SH-SY5Y cells; assay: RT-qPCR of autophagy-related genes regulated by ATF4; assay type: cell-based, human; conditions: 5 μM SB1617 with 1 μM thapsigargin, 8 hours, versus thapsigargin alone
Procedure: To analyze the level of autophagy-related genes, SH-SY5Y cells were treated with 1 μM thapsigargin for 8 h in the presence or absence of 5 μM SB1617. Total RNA was extracted using the RNeasy kit (Qiagen) according to the manufacturer's instructions. RNA was quantified using NanoVue (GE Healthcare) and cDNA was prepared with AccuPower CycleScript RT PreMix dT20 (Bioneer) according to the manufacturer's instructions. Quantitative RT-polymerase chain reaction (qRT-PCR) experiments were performed using KAPA SYBR FAST ABI Prism qPCR Master Mix (KAPA Biosystems). Data were analyzed with the comparative Ct method and normalized to housekeeping genes.
5-3. ATF4 is a transcription factor, which rises during elF2a-phosphorylation and upregulates genes related to autophagy and oxidation/reduction control as a recovery mechanism during ER stress. To assure this, 5 μM SB1617 was treated in SH-SY5Y cells for 8 hours in the presence or absence of 1 μM thapsigargin, and then autophagy-related genes regulated by ATF4 were identified with RT-qPCR.

CN(Cc1ccc(Cl)cc1)c1ncnc2c1[C@@H]1OC[C@H](CN2)N1S(=O)(=O)c1ccc([N+](=O)[O-])cc1 [Compound 117]
direct binding (SPR) (PDIA3): binds directly | direct binding (SPR) (DNAJC3): binds directly | oxidation state of PDI [1]: significantly converted from the reduced form to the oxidized form | transcription level of autophagy-related genes regulated by ATF4 [2]: increased the transcription level of autophagy-related genes
